From US4370339A, “Method for treating inflammatory conditions” (Abbott Laboratories, priority 1981, dated 1983)

Experiments:
[1] = tested on: rats; experiment: toxicity, fatality ratio in rats; format: in vivo; details: for Fatality Ratio: rats
Experimental: The lesser toxicity of the 1-alkaryl derivatives is illustrated by the data of Table 3, which gives the fatality ratio in rats when the compounds were administered in the indicated dosages.

[2] = tested on: reverse passive Arthus reaction; experiment: reverse passive Arthus reaction in the rat; format: in vivo, rat (male Sprague-Dawley); details: oral, 100 mg/kg of body weight; lesion measured 4 h after anti-B.S.A.; groups of 4 rats
Excerpt: The anti-inflammatory activity of the compounds used in the invention was established using the reverse passive Arthus reaction in the rat as described by G. W. Carter and R. A. Krause in Federation Proceedings, Vol. 35, page 774, 1976. Although the carrageenin rat paw edema test (Winter et al., Proc. Soc. Exp. Biol. Med., 111, 554, 1962) can also be used to establish anti-inflammatory activity, the Arthus reaction, unlike carrageenin induced edema, is a well-characterized immune reaction which bears close resemblance to the pathogenesis of rheumatoid arthritis.
The Arthus reaction represents one of the oldest and best studied models of immunological injury. It is produced by the injection of antigen locally into a hyperimmunized animal or by the injection of a small amount of antibody into the skin of an animal that has just previously been given a large amount of soluble antigen intravenously. In both cases, the antigen and antibody become deposited in the walls of small venules. Plasma complement is rapidly bound and activated. […]
Thirty minutes after administration of the drug, each animal is injected intradermally with 0.05 ml of 1.44% anti-B.S.A. into the dorsal skin. […] Two perpendicular diameters of each lesion are measured. […]

[3] = tested on: carrageenin pleurisy; experiment: modification of the carrageenin pleurisy assay; format: in vivo
Excerpt: Also tested for comparison was phenylbutazone, a compound known to have anti-inflammatory activity.

## NC1=NN(c2cccc(C(F)(F)F)c2)CC1 [1-(m-trifluoromethylphenyl)-3-amino-2-pyrazoline, reference compound]
[1]; 285 mg/kg
  Fatality Ratio: 8/10

## NC1=NN(Cc2ccccc2)CC1 [1-benzyl-3-amino-2-pyrazoline]
[2]
  % Inhibition Of Lesion: 57%
[3]; 120 mg/kg
  % Inhibition Cells: 55%
  % Inhibition Volume Exudate: 76%
[1]; 512 mg/kg
  Fatality Ratio: 0/10
[1]; compared with 1-aryl derivatives of 3-amino-2-pyrazoline
  toxicity relative to 1-aryl derivatives, in words: markedly less toxic

## O=C1CCN(Cc2ccccc2)N1 [1-benzyl-3-pyrazolidinone, reference compound]
[2]
  % Inhibition Of Lesion: 28%

## CCCCC1C(=O)N(c2ccccc2)N(c2ccccc2)C1=O [phenylbutazone, reference compound]
[3]; 100 mg/kg
  % Inhibition Cells: 13%
  % Inhibition Volume Exudate: 59%
